Drawing on US20230286927A1, “2-PHENYLBENZOTRIAZOL-5-AMINE DERIVATIVES FOR THE TREATMENT AND PROPHYLAXIS OF HEPATITIS B VIRUS (HBV) INFECTION” (priority 2020, published 2023), this text covers IC50 and CC50 for 29 compounds.

The subject of data set [1] is HBsAg. As to the kind of experiment: PHH natural infection assay, HBsAg (alphalisa). The class given is cell-based, HBV. Conditions: Hepatitis B virus, Hepatocyte, 72 h, read-out: HBsAg IC50. The method, then: (§1) Detailed procedures regarding primary human hepatocyte (PHH) HBV natural infection assay are described as below. One tube of frozen PHH (10 million cells) is thawed in 37° C. water bath and then transferred to 20 mL of PHH thawing medium (Sigma, InVitroGRO HT Medium, Cat. S03319) with gently mixing. The cells were then centrifuged at […] for 5 min, the supernatant was discarded and the tube was refilled with 25 mL of PHH plating medium (Sigma, InVitroGRO CP Medium, Cat. S03317). The tube was shaken very gently to re-suspend all cells, and then 50 μl of cells were transferred to each well 384-well collagen I coated plate with appropriate liquid handling equipment, e.g. Integra VIAFLO384 or Agilent Bravo. The cells were then cultured for 24 hours in a cell incubator. For HBV infection, after PHH attachment on the culture plate, the plating medium was removed and replenished with PHH culture medium containing HBV virus. The PHH culture medium was prepared with Dulbecco's Modified Eagle Medium (DMEM)/F12 (1:1 in volume ratio) containing 10% fetal bovine serum (Gibco, Cat. 10099141), 5 ng/mL human epidermal growth factor (Gibco, Cat.PHG031IL), 20 ng/mL dexamethasone (Sigma, Cat.D4902-100 mg), 250 ng/mL human recombinant insulin (Gibco, Cat.41400045) and 100 U/mL penicillin. HBV virus at 200 genome equivalent (GE) per cell with 4% PEG8000 (Sigma, Cat.P1458) containing culture medium were added to the PHH culture medium for infection. The cells were then cultured for 24 hours in cell incubator. Then the cell culture supernatant was removed. The HBV-infected PHH were cultured with sandwich culture method with PHH culture medium containing 1% DMSO and 0.25 mg/mL matrix gel for 72 hours. The supernatant was then refreshed with PHH culture medium containing different concentrations of testing compounds for two times with 72-hour interval. At the end of treatment, the supernatant was collected for viral markers measurements, including HBsAg, HBeAg, HBV DNA and cytotoxicity. HBsAg and HBeAg were detected using alphalisa method using their specific antibodies. For HBV DNA detection, HBV DNA Quantitative Fluorescence Diagnostic Kit (Sansure Biotech Inc.) was used following the manufacture's protocol. Cytotoxicity was determined using Cell Counting Kit-8 (CCK8, Dojindo Molecular Technologies, Inc.).
(§2) The compounds of the present invention were tested for their capacity to inhibit HBsAg and HBeAg as described herein.

The test system of data set [2] is HBeAg. As to the kind of experiment: PHH natural infection assay, HBeAg (alphalisa). It counts as cell-based, HBV. The conditions noted are these: Hepatitis B virus, Hepatocyte, 72 h, read-out: HBeAg IC50. As to the method: as §1, §2
Data set [3] can be described thus: Cytotoxicity in PHH natural infection assay (Cell Counting Kit-8). It counts as cell-based. Conditions: HBV-infected primary human hepatocytes, CCK8. The method, then:
as §1

As to `O=C(Nc1ccc2nn(-c3ccc(Cl)cc3)nc2c1)C1COCCO1` (stereo not drawn) [Example 47, N-[2-(4-chlorophenyl)benzotriazol-5-yl]-1,4-dioxane-2-carboxamide], the figures for the IC50 in data set [1] and in data set [2] were 3.73 µM and 1.84 µM, respectively. The same compound gave a CC50 at 144 h in data set [3] greater than 100 µM.

As to `COCCNc1ccc2nn(-c3ccc(Cl)cc3)nc2c1` [Example 15, 2-(4-Chlorophenyl)-N-(2-methoxyethyl)benzotriazol-5-amine], the results for the IC50 in data set [1] and in data set [2] were 3.71 µM and 2.36 µM, respectively. This compound showed a CC50 at 144 h in data set [3] greater than 100 µM.

Consider `Clc1ccc(-n2nc3ccc(Nc4nc(-c5ccccc5)cs4)cc3n2)cc1` [Example 63, N-[2-(4-chlorophenyl)benzotriazol-5-yl]-4-phenyl-thiazol-2-amine], for which the IC50 in data set [1] amounted to 1.52 µM; in data set [2], 1.34 µM. In data set [3], this compound displayed a CC50 at 144 h greater than 100 µM.

Take `CCCNc1ccc2nn(-c3ccc(Cl)cc3)nc2c1` [Example 14, 2-(4-Chlorophenyl)-N-propyl-benzotriazol-5-amine]: the results for the IC50 in data set [1] and in data set [2] were 2.92 µM and 3.97 µM, respectively. In data set [3], this compound showed a CC50 at 144 h greater than 100 µM.

For `O=C(Nc1ccc2nn(-c3ccc(F)cc3)nc2c1)C1CCCC1` [Example 43, N-[2-(4-fluorophenyl)benzotriazol-5-yl]cyclopentanecarboxamide], the figures for the IC50 in data set [1] and in data set [2] were 8.2 µM and 12.8 µM, respectively. Besides, in data set [3], the CC50 at 144 h was greater than 100 µM.

`CN(C)C(=S)Nc1ccc2nn(-c3ccc(Cl)cc3)nc2c1` [Example 61, 3-[2-(4-Chlorophenyl)benzotriazol-5-yl]-1,1-dimethyl-thiourea]: the IC50 in data set [1] turned out to be 0.79 µM; in data set [2], 1.22 µM. In addition, the CC50 at 144 h in data set [3] was greater than 100 µM.

In the case of `Clc1ccc(-n2nc3ccc(NC4CCC4)cc3n2)cc1` [Example 29, 2-(4-Chlorophenyl)-N-cyclobutyl-benzotriazol-5-amine], the concentration for half-maximal inhibition (IC50) came to 5.55 µM in data set [1] and 9.23 µM in data set [2]. This compound displayed a CC50 at 144 h in data set [3] greater than 100 µM.

With `CCN(CC)c1ccc2nn(-c3ccc(Cl)cc3)nc2c1` [Example 34, 2-(4-Chlorophenyl)-N,N-diethyl-benzotriazol-5-amine], the IC50 in data set [1] stood at 1.8 µM; in data set [2], 2.5 µM. The CC50 at 144 h in data set [3] is greater than 100 µM.

Take `O=C(Nc1ccc2nn(-c3ccc(Cl)cc3)nc2c1)C1CCCC1` [Example 49, N-[2-(4-chlorophenyl)benzotriazol-5-yl]cyclopentanecarboxamide]: the IC50 was determined as 2.84 µM in data set [1] and 1.29 µM in data set [2]. Also, in data set [3], the CC50 at 144 h was greater than 100 µM.

Regarding `CCS(=O)(=O)c1ccc(-n2nc3ccc(N)cc3n2)cc1` [Example 8, 2-(4-Ethylsulfonylphenyl)benzotriazol-5-amine], the IC50 in data set [1] worked out at 6.32 µM; in data set [2], 6.26 µM. In data set [3], this compound came in with a CC50 at 144 h greater than 100 µM.

On to `CC(Nc1ccc2nn(-c3ccc(Cl)cc3)nc2c1)C(F)(F)F` (stereo not drawn) [Example 32, 2-(4-Chlorophenyl)-N-(2,2,2-trifluoro-1-methyl-ethyl)benzotriazol-5-amine], for which the 50% inhibitory concentration (IC50) in data set [1] turned out to be 9.14 µM; in data set [2], 10.7 µM. The CC50 at 144 h in data set [3] was greater than 100 µM.

Regarding `COc1ccc(-n2nc3ccc(N)cc3n2)cc1` [Example 3, 2-(4-Methoxyphenyl)benzotriazol-5-amine], the IC50 in data set [1] worked out at 1.5 µM; in data set [2] it was 1.7 µM. In data set [3], this compound showed a CC50 at 144 h greater than 100 µM.

Turning to `FC(F)(F)CNc1ccc2nn(-c3ccc(Cl)cc3)nc2c1` [Example 28, 2-(4-Chlorophenyl)-N-(2,2,2-trifluoroethyl)benzotriazol-5-amine], the IC50 was determined as 2.14 µM in data set [1] and 2.46 µM in data set [2]. The compound further gave a CC50 at 144 h in data set [3] greater than 100 µM.

Take `CC(C)Nc1ccc2nn(-c3ccc(Cl)cc3)nc2c1` [Example 30, 2-(4-Chlorophenyl)-N-isopropyl-benzotriazol-5-amine]: the results for the IC50 in data set [1] and in data set [2] were 3.75 µM and 6.61 µM, respectively. Besides, in data set [3], the CC50 at 144 h was greater than 100 µM.

In the case of `Fc1ccc(-n2nc3ccc(NC4CCOC4)cc3n2)cc1` (stereo not drawn) [Example 21, 2-(4-Fluorophenyl)-N-tetrahydrofuran-3-yl-benzotriazol-5-amine], the half-maximal inhibitory concentration (IC50) in data set [1] came to 9.74 µM; in data set [2], 10.6 µM. The CC50 at 144 h in data set [3] was greater than 100 µM.

For the compound `Cc1csc(Nc2ccc3nn(-c4ccc(Cl)cc4)nc3c2)n1` [Example 64, N-[2-(4-chlorophenyl)benzotriazol-5-yl]-4-methyl-thiazol-2-amine], the IC50 came to 1.42 µM in data set [1] and 3.04 µM in data set [2]. In data set [3], this compound yielded a CC50 at 144 h greater than 100 µM.

Take `O=C(Nc1ccc2nn(-c3ccc(F)cc3)nc2c1)C1CCOC1` (stereo not drawn) [Example 40, N-[2-(4-fluorophenyl)benzotriazol-5-yl]tetrahydrofuran-3-carboxamide]: the IC50 in data set [1] worked out at 6.66 µM; in data set [2], 6.76 µM. In data set [3], this compound showed a CC50 at 144 h greater than 100 µM.

`CN(C)c1ccc2nn(-c3ccc(Cl)cc3)nc2c1` [Example 33, 2-(4-Chlorophenyl)-N,N-dimethyl-benzotriazol-5-amine]: the IC50 is 4 µM in data set [1] and 3.71 µM in data set [2]. The compound also came in with a CC50 at 144 h in data set [3] greater than 100 µM.

As for `O=C(CC(F)(F)F)Nc1ccc2nn(-c3ccc(F)cc3)nc2c1` [Example 44, 3,3,3-trifluoro-N-[2-(4-fluorophenyl)benzotriazol-5-yl]propanamide], the IC50 in data set [1] was 6.87 µM; in data set [2] it was 11.7 µM. In data set [3], the CC50 at 144 h is greater than 100 µM.

Turning to `CCN(C)c1ccc2nn(-c3ccc(Cl)cc3)nc2c1` [Example 36, 2-(4-Chlorophenyl)-N-ethyl-N-methyl-benzotriazol-5-amine], the IC50 in data set [1] is 4.03 µM; in data set [2] it was 4.45 µM. The CC50 at 144 h in data set [3] was greater than 100 µM.

For `Cc1cc(N)cc2nn(-c3ccc(Cl)cc3)nc12` [Example 11, 2-(4-Chlorophenyl)-7-methyl-benzotriazol-5-amine], the results for the IC50 in data set [1] and in data set [2] were 2.66 µM and 3.89 µM, respectively. The compound also registered a CC50 at 144 h in data set [3] greater than 100 µM.

On to `CC(C)C(=O)NC(=S)Nc1ccc2nn(-c3ccc(Cl)cc3)nc2c1` [Example 57, N-[[2-(4-chlorophenyl)benzotriazol-5-yl]carbamothioyl]-2-methyl-propanamide], for which the IC50 in data set [1] was 2.5 µM; in data set [2] it was 3.72 µM. For the same compound, in data set [3], the CC50 at 144 h was greater than 100 µM.

For `CC(=O)Nc1ccc2nn(-c3ccc(Cl)cc3)nc2c1` [Example 38, N-[2-(4-chlorophenyl)benzotriazol-5-yl]acetamide], the IC50 in data set [1] was 3.65 µM; in data set [2] it was 5.54 µM. Besides, the CC50 at 144 h in data set [3] is greater than 100 µM.

Turning to `Clc1ccc(-n2nc3ccc(NCC4CCOC4)cc3n2)cc1` (stereo not drawn) [Example 23, 2-(4-Chlorophenyl)-N-(tetrahydrofuran-3-ylmethyl)benzotriazol-5-amine], the results for the IC50 in data set [1] and in data set [2] were 4.92 µM and 7.67 µM, respectively. Further, in data set [3], the CC50 at 144 h is greater than 100 µM.

As for `O=C(CC(F)(F)F)Nc1ccc2nn(-c3ccc(Cl)cc3)nc2c1` [Example 51, N-[2-(4-chlorophenyl)benzotriazol-5-yl]-3,3,3-trifluoro-propanamide], the IC50 in data set [1] turned out to be 4.09 µM; in data set [2], 1.66 µM. The CC50 at 144 h in data set [3] is greater than 100 µM.

Regarding `c1ccc(-n2nc3ccc(NC4CCCC4)cc3n2)cc1` [Example 16, N-cyclopentyl-2-phenyl-benzotriazol-5-amine], the figures for the IC50 in data set [1] and in data set [2] were 9.25 µM and 15.8 µM, respectively. The CC50 at 144 h in data set [3] was greater than 100 µM.

Regarding `CC(C)c1csc(Nc2ccc3nn(-c4ccc(Cl)cc4)nc3c2)n1` [Example 62, N-[2-(4-chlorophenyl)benzotriazol-5-yl]-4-isopropyl-thiazol-2-amine], the values for the IC50 in data set [1] and in data set [2] were 3.8 µM and 5.8 µM, respectively. The CC50 at 144 h in data set [3] was greater than 100 µM.

Turning to `COc1cccc(-n2nc3ccc(N)cc3n2)c1` [Example 6, 2-(3-Methoxyphenyl)benzotriazol-5-amine], the figures for the IC50 in data set [1] and in data set [2] were 2.44 µM and 4.1 µM, respectively. Further, the CC50 at 144 h in data set [3] is greater than 100 µM.

Consider `Nc1ccc2nn(-c3cccc(Cl)c3)nc2c1` [Example 1, 2-(3-Chlorophenyl)benzotriazol-5-amine], for which the IC50 in data set [1] stood at 1.2 µM; in data set [2], 1.8 µM. The compound also had a CC50 at 144 h in data set [3] greater than 100 µM.
